Test system: p4E-BP1 (T37/46)
Test: Human peripheral blood mono-nucleocyte biomarker assay (Phosflow, Phase I trial)
Type: in vivo
Conditions: all dosing regimens
Description: A BD Biosciences Phosflow assay was conducted using human peripheral blood cells. Whole blood was lysed and fixed using the provided BD Lyse/Fix buffer and permeabilized with BD Perm III buffer. Peripheral blood cells were isolated and stained using CD33 and CD20 as extracellular markers and p4E-BP1 (T37/46) as the intracellular biomarker. Cell type populations were identified as monocytes (CD33+), granulocytes (CD33 dim), lymphocytes (CD33−), B-cells (CD33−, CD20+) and T &NK cells (CD33−, CD20−) by FACS analysis. The median fluorescense intensity (MFI) of each cell type was analyzed along with the percentage of p4E-BP1 positive cells.
Pharmacodynamic (PD) endpoints were evaluated in surrogate (peripheral blood cells [PBCs], skin) and tumor tissues for the phosphorylation of TORC1-dependent markers (4EBP1/S6), and TORC2-dependent markers (AKT/PRAS40). 50 patients were treated in 3 intermittent dosing regimens; 21 in 6 cohorts ranging 7-40 mg QW, 20 in 5 cohorts ranging 6-20 mg QDx3d QW, and 9 in 3 cohorts ranging 7-13 mg QDxSd QW. […] The MTD for intermittent dosing was not reached. All adverse events (AEs) reported were reversible. The most common (≧20%, n=35) AEs considered possibly related to compound A reported in all 3 dosing regimens included nausea (51%), hyperglycemia (37%), mucosal inflammation (29%), rash (23%), asthenia (23%), vomiting (26%), and diarrhea (20%). […]

With `CC(C)n1nc(-c2ccc3oc(N)nc3c2)c2c(N)ncnc21` [compound A] as the compound, how does the “p4EBP1 levels in PBC” value read?
The value was “Decreases in p4EBP1 levels were seen”.

From US9174994B2, “Enhanced treatment regimens using mTor inhibitors” (INTELLIKINE LLC, priority 2011, dated 2015)
